Literature values in article PMC7111419 (European Journal of Medicinal Chemistry, 2019).
pIC50: −log10 of the molar value. Read-outs that look alike come from different tables or passages of the source.

Columns and labels:
[1] = test system: E. coli cells; conditions: 100 μM; cited from earlier work
[2] = test system: βGLU; conditions: cited from earlier work
[3] = test system: female Wistar rats; conditions: i.p. pre or cotreatment, 3 mg/ml, 10 mg/ml or 10 mg/0.5 ml, 6 days; cited from earlier work
[4] = test system: βGLU in breast milk; conditions: 10 μM; cited from earlier work
[5] = test system: human liver-derived βGLU; conditions: 1 mM; cited from earlier work
[6] = test system: SENCAR mice; conditions: cited from earlier work
[7] = test system: male albino Wistar rats; conditions: 7.5 mg/kg body weight/day intragastric, 7 days; cited from earlier work
[8] = test system: Wistar rats; conditions: 0.8 μg inhibitor, 3 mg/kg diclofenac; cited from earlier work
[9] = test system: E. coli βGLU; conditions: cited from earlier work
[10] = test system: rat neutrophils; conditions: read-out: IC50, βGLU release; cited from earlier work
[11] = test system: neutrophil-derived βGLU; conditions: 1 μM; cited from earlier work
[12] = test system: salivary βGLU; conditions: 16 subjects with aggressive periodontitis; cited from earlier work

For `O=C(Cn1c(-c2ccccn2)nc2ccccc21)c1ccc(Cl)cc1` [Compound 4-Cl], the “cytotoxicity to E. coli cells” value [1] is given as “cytotoxicity” and the pIC50 [2] is given as 4.49.

In the case of `O=C(O)[C@@H](O)[C@H]1OC(=O)[C@H](O)[C@H]1O` [Compound 5, D-saccharic acid-1,4-lactone], the “severity of CPT-11 induced small-intestine mucosal damage” value [3] is listed as “reduced the severity”, the “inhibition of βGLU in breast milk” value [4] is listed as “over 90%” and the “inhibition of hydrolytic action on quercetin glucuronides” value [5] is listed as “completely inhibited”. For the same compound, the “reduction of DMBA-induced oxidative DNA damage and mutations in codon 61 of Ha-ras gene” value [6] was “up to 78%” and the pIC50 ([2]; value recurrent in literature) was roughly 4.40.

In the case of `Cc1ccc(C(C)C)c(O)c1` [Compound 54, thymol], the “activities of lysosomal enzymes (βGLU, β-galactosidase, cathepsin B and D) in serum and heart” value [7] is listed as “potently inhibited to near-normal”.

For `COc1ccc(NC(=S)N(CCO)Cc2cc3cc(C)cc(C)c3[nH]c2=O)cc1` [Compound 152], the “fold reduction in severity of diclofenac-induced anastomotic leakage” value [8] is listed as 2 fold and the “fold increased potency vs glucaro-δ-lactam 61” value [9] is listed as 100 fold.

In the case of `C[C@@H]1C(=O)O[C@H]2[C@H](O)[C@@]34[C@H]5C[C@@H](C(C)(C)C)[C@]36[C@@H](OC(=O)[C@@H]6O)O[C@@]4(C(=O)O5)[C@@]12O` [ginkgolide B], the pIC50 [10] is listed as 5.18.

For `O=C(O)c1ccccc1O` [salicylic acid, reference compound], the inhibition ([2]; 1 mM) is given as 24.77% and the inhibition [11] is given as 25%.

For doxycycline hyclate, the “effect on salivary βGLU activity” value [12] is listed as “inefficient”.
